What all share (assay): cells
What all share (design): species or system NCI-60 human tumour cell lines; NCI-60 five-dose growth inhibition screen, sulforhodamine B protein stain
For orientation: The SRB assay estimates cell density from bound dye.

One assay has as its system HT29. Particulars: Homo sapiens, HT-29, 48 h. How it is done: (§1) All the newly synthesised 28 compounds were selected for single-dose testing. NCI60 single-dose testing is performed in all 60 cell lines according to the reported assay (National Cancer Institute, https://dtp.cancer.gov/) (National Cancer Institute https://dtp.cancer.gov/discovery_development/nci-60/), compounds were dissolved in DMSO: glycerol […] and are stored in a −70 °C freezer. The prepared compounds were added at single concentration of 1 0^−5 M and the culture was incubated for 48 h. End point determinations were made with a protein binding dye, sulforhodamine B (SRB). The human tumour cell lines were derived from nine different cancer types: leukaemia, melanoma, lung, colon, central nervous system (CNS), ovarian, renal, prostate, and breast cancers. Dose–response curves for these compounds were created by plotting the percentage growth (PGs or % growth) against log10 of the corresponding concentration for every cell line. Three response parameters, GI50 (Median Growth Inhibitory Concentration), TGI (Total Growth Inhibitory Concentration), and LC50 (Median Lethal Concentration) were calculated[54] (National Cancer Institute, https://dtp.cancer.gov/discovery_development/nci-60/) (National Cancer Institute, https://dtp.cancer.gov/)[55] for compounds 5a and 6a. […] Furthermore, the average sensitivity of all cell lines towards the compound is termed as the full panel mean graph midpoints (MG-MID). The ratio obtained by dividing the full panel mean graph midpoints (MG-MID) concentration by the individual subpanel MG-MID concentrations (obtained as the average sensitivity of all cell lines of a particular subpanel towards the test compound) is considered a criterion for the compound selectivity towards the corresponding cell line. Ratios greater than 6 indicate high selectivity while ratios between 3 and 6 refer to moderate selectivity whereas compounds not meeting either of these criteria were rated non-selective[56].

The subject of the next assay is MDA-MB-468. The settings on record: Homo sapiens, MDA-MB-468, 48 h. How it is done: as §1
The next assay has as its system SK-MEL-2. The settings on record: Homo sapiens, SK-MEL-2, 48 h. How it is done:
as §1

The subject of a further assay is SN12C. Particulars: Homo sapiens, SN12C, 48 h. On the procedure:
as §1

A further assay has as its system A549/ATCC. The settings on record: Homo sapiens, A549, 48 h. How it is done:
as §1

The test system of another assay is COLO 205. Particulars: Homo sapiens, COLO 205, 48 h. On the procedure: as §1
A further assay has as its system NCI-H460. The settings on record: Homo sapiens, NCI-H460, 48 h. How it is done: as §1
A further assay concerns MDA-MB-435. The settings on record: Homo sapiens, MDA-MB-435, 48 h. How it is done: as §1
The test system of the next assay is OVCAR-8. Particulars: Homo sapiens, OVCAR-8, 48 h. How it is done: as §1
The next assay deals with LOX IMVI. Particulars: Homo sapiens, LOX IMVI, 48 h. How it is done:
as §1

The test system of another assay is MCF7. The settings on record: Homo sapiens, MCF7, 48 h. How it is done:
as §1

Another assay concerns KM12. Particulars: Homo sapiens, KM12, 48 h. How it is done: as §1
Another assay deals with RPMI-8226. The settings on record: Homo sapiens, RPMI-8226, 48 h. On the procedure:
as §1

For the next assay, the system named is UACC-62. Particulars: Homo sapiens, UACC-62, 48 h. How it is done: as §1
The subject of another assay is NCI/ADR-RES. The settings on record: Homo sapiens, NCI/ADR-RES, 48 h. How it is done:
as §1

Another assay deals with A498. The settings on record: Homo sapiens, A498, 48 h. How it is done:
as §1

A further assay has as its system SNB-19. The settings on record: Homo sapiens, SNB-19, 48 h. On the procedure:
as §1

GI50 data for two compounds are collected here from PMC9721423, “Novel benzo chromene derivatives: design, synthesis, molecular docking, cell cycle arrest, and apoptosis induction in human acute myeloid leukemia HL-60 cells” (Journal of Enzyme Inhibition and Medicinal Chemistry, 2022).

As usually defined, the GI50 is the concentration giving 50% growth inhibition.

Like-named read-outs stand apart in the source and are kept apart here.

As to `N=C(NO)C1=C(N)Oc2c(ccc3ccccc23)C1c1ccccc1` (stereo not shown) [5a, 2-Amino-4-phenyl-N-hydroxy-4H-benzo[h]chromene-3-carboxamidine], the GI50 in the assay with HT29 (read-out: GI50 5a) is 480 nM; in the assay with MDA-MB-468 (read-out: GI50 5a), 1990 nM; with SK-MEL-2 (read-out: GI50 5a), 28.7 µM; in the assay with SN12C (read-out: GI50 5a), 530 nM; with A549/ATCC (read-out: GI50 5a) it was 420 nM; with COLO 205 (read-out: GI50 5a), 460 nM. Moreover, the GI50 with NCI-H460 (read-out: GI50 5a) was 310 nM; in the assay on MDA-MB-435 (read-out: GI50 5a), 30 nM; with OVCAR-8 (read-out: GI50 5a) it was 400 nM; in the assay with LOX IMVI (read-out: GI50 5a), 540 nM; in the assay with MCF7 (read-out: GI50 5a) it was 210 nM; with KM12 (read-out: GI50 5a), 220 nM. Also, the GI50 was 380 nM in the assay on RPMI-8226 (read-out: GI50 5a); 50 nM with UACC-62 (read-out: GI50 5a); 60 nM with NCI/ADR-RES (read-out: GI50 5a); 110 nM with A498 (read-out: GI50 5a); 490 nM in the assay with SNB-19 (read-out: GI50 5a).
`CC(=O)NC1=C(C#N)C(c2ccccc2)c2ccc3ccccc3c2O1` (stereo not shown) [6a, N-(3-Cyano-4-phenyl-4H-benzo[h]chromen-2-yl)acetamide]: the GI50 in the assay with HT29 (read-out: GI50 6a) amounted to 380 nM; with MDA-MB-468 (read-out: GI50 6a) it was 240 nM; in the assay with SK-MEL-2 (read-out: GI50 6a) it was 0.65 µM; with SN12C (read-out: GI50 6a) it was 700 nM; in the assay on A549/ATCC (read-out: GI50 6a), 980 nM; in the assay with COLO 205 (read-out: GI50 6a), 610 nM. Besides, the GI50 in the assay on NCI-H460 (read-out: GI50 6a) was 370 nM; in the assay with MDA-MB-435 (read-out: GI50 6a) it was 230 nM; in the assay on OVCAR-8 (read-out: GI50 6a), 630 nM; in the assay on LOX IMVI (read-out: GI50 6a) it was 600 nM; with MCF7 (read-out: GI50 6a), 470 nM; in the assay with KM12 (read-out: GI50 6a) it was 430 nM. Besides, the GI50 in the assay on RPMI-8226 (read-out: GI50 6a) came to 410 nM; with UACC-62 (read-out: GI50 6a) it was 710 nM; with NCI/ADR-RES (read-out: GI50 6a), 300 nM; with A498 (read-out: GI50 6a), 200 nM; with SNB-19 (read-out: GI50 6a) it was 780 nM.
